Assay results reported in PMC12141164, “Phase-1 study of vamotinib (PF-114), a 3rd generation BCR::ABL1 tyrosine kinase-inhibitor, in chronic myeloid leukaemia” (Annals of Hematology, 2025).
Read-outs that look alike come from different tables or passages of the source.

How the values were obtained:
[1] = Pharmacokinetics in plasma after single- and multiple-dose administration; type: in vivo, human
Method: Blood samples were obtained to evaluate pharmacokinetics and pharmacodynamics (Tables S1, S1.1, S1.2). Data on phosphorylated CrkL protein (pCrkL) concentration were evaluated in samples from 4 subjects.
Pharmacokinetic measurements were done on days 1 and 29–30 of treatment. […] Steady-state was reached after 8 days of dosing, Fig. 1.
PF-114 was determined in human plasma samples using validated analytical method. […] The analytical method used 200 µL of plasma sample for each analysis. Analyte was isolated from plasma by a solid-phase extraction procedure performed on Oasis MCX extraction columns.
According to the Protocol, population for the pharmacokinetic analysis consists of all patients, who took at least one dose of PF-114, with respect to which sufficient amount of data on concentration of the study drug in the blood. The analysis of data on pharmacokinetic properties of the drug is carried out in this population of patients. All PK analyses will be presented on two subsets described in more detail below:
The PK concentration set (PK-C): This set includes all treated subjects who have at least 1 measured concentration.
The PK parameter analysis set (PK-P): This set consists of subjects from PK-C, who have no major protocol violation relevant to the evaluation of Pharmacokinetics, and who have at least 1 estimated PK parameter. Listings include all available raw data without any exclusions.

[2] = tested on: ZAK; conditions: kinase inhibition profiles; cited from earlier work
[3] = tested on: TIE2; conditions: kinase inhibition profiles; cited from earlier work
[4] = human, plasma, oral, 50 mg, Multiple-dose administration
[5] = human, plasma, oral, 50 mg, Single-dose administration
[6] = human, plasma, oral, 100 mg, Multiple-dose administration
[7] = human, plasma, oral, 100 mg, Single-dose administration
[8] = human, plasma, oral, 200 mg, Multiple-dose administration
[9] = human, plasma, oral, 200 mg, Single-dose administration
[10] = human, plasma, oral, 300 mg, Multiple-dose administration
[11] = human, plasma, oral, 300 mg, Single-dose administration
[12] = human, plasma, oral, 400 mg, Multiple-dose administration
[13] = human, plasma, oral, 400 mg, Single-dose administration
[14] = human, plasma, oral, 500 mg, Multiple-dose administration
[15] = human, plasma, oral, 500 mg, Single-dose administration
[16] = human, plasma, oral, 600 mg, Multiple-dose administration
[17] = human, plasma, oral, 600 mg, Single-dose administration
[18] = human, plasma, oral, 750 mg, Single-dose administration

Cc1ccc(C(=O)Nc2ccc(CN3CCN(C)CC3)c(C(F)(F)F)c2)cc1C#Cc1nnc2ccccn12 [vamotinib]
Ctrough, Mean ([1]; Multiple-dose administration, 50 mg): 7,35 ng/ml | Ctrough, Mean ([1]; Multiple-dose administration, 100 mg): 8,90 ng/ml | Ctrough, Mean ([1]; Multiple-dose administration, 200 mg): 21,92 ng/ml | Ctrough, Mean ([1]; Multiple-dose administration, 300 mg): 22,45 ng/ml | Ctrough, Mean ([1]; Multiple-dose administration, 400 mg): 35,34 ng/ml | Ctrough, Mean ([1]; Multiple-dose administration, 500 mg): 38,40 ng/ml | Ctrough, Mean ([1]; Multiple-dose administration, 600 mg): 49,78 ng/ml | linearity of pharmacokinetics (concentration-time profiles) ([1]; dose range 50–750 mg): linear or near-linear pharmacokinetics | half-life ([1]; human, plasma, oral): 13.5 h | Cmax [1, 4]: 33.3 ng/mL | Tmax [1, 4]: 1.9 h | AUC(0-t) ([1]; human, plasma, oral, 50 mg, Multiple-dose administration, 50 mg, read-out: AUC0-24, Mean): 445 ng·h/mL | Cmax [1, 5]: 25.3 ng/mL | Tmax [1, 5]: 2.67 h | AUC(0-t) ([1]; human, plasma, oral, 50 mg, Single-dose administration, 50 mg, read-out: AUC0-t, Mean): 252 ng·h/mL | Cmax [1, 6]: 94 ng/mL | Tmax [1, 6]: 3.36 h | AUC(0-t) ([1]; human, plasma, oral, 100 mg, Multiple-dose administration, 100 mg, read-out: AUC0-24, Mean): 1260 ng·h/mL | Cmax [1, 7]: 89.7 ng/mL | Tmax [1, 7]: 4.67 h | AUC(0-t) ([1]; human, plasma, oral, 100 mg, Single-dose administration, 100 mg, read-out: AUC0-t, Mean): 1070 ng·h/mL | Cmax [1, 8]: 109 ng/mL | Tmax [1, 8]: 3.36 h | AUC(0-t) ([1]; human, plasma, oral, 200 mg, Multiple-dose administration, 200 mg, read-out: AUC0-24, Mean): 1580 ng·h/mL | Cmax [1, 9]: 82.1 ng/mL | Tmax [1, 9]: 3.46 h | AUC(0-t) ([1]; human, plasma, oral, 200 mg, Single-dose administration, 200 mg, read-out: AUC0-t, Mean): 1060 ng·h/mL | Cmax [1, 10]: 148 ng/mL | Tmax [1, 10]: 4.52 h | AUC(0-t) ([1]; human, plasma, oral, 300 mg, Multiple-dose administration, 300 mg, read-out: AUC0-24, Mean): 2260 ng·h/mL | Cmax [1, 11]: 125 ng/mL | Tmax [1, 11]: 3.58 h | AUC(0-t) ([1]; human, plasma, oral, 300 mg, Single-dose administration, 300 mg, read-out: AUC0-t, Mean): 1630 ng·h/mL | Cmax [1, 12]: 177 ng/mL | Tmax [1, 12]: 4 h | AUC(0-t) ([1]; human, plasma, oral, 400 mg, Multiple-dose administration, 400 mg, read-out: AUC0-24, Mean): 2710 ng·h/mL | Cmax [1, 13]: 120 ng/mL | Tmax [1, 13]: 4.72 h | AUC(0-t) ([1]; human, plasma, oral, 400 mg, Single-dose administration, 400 mg, read-out: AUC0-t, Mean): 1740 ng·h/mL | Cmax [1, 14]: 228 ng/mL | Tmax [1, 14]: 4.04 h | AUC(0-t) ([1]; human, plasma, oral, 500 mg, Multiple-dose administration, 500 mg, read-out: AUC0-24, Mean): 3490 ng·h/mL | Cmax [1, 15]: 116 ng/mL | Tmax [1, 15]: 3.96 h | AUC(0-t) ([1]; human, plasma, oral, 500 mg, Single-dose administration, 500 mg, read-out: AUC0-t, Mean): 1500 ng·h/mL | Cmax [1, 16]: 179 ng/mL | Tmax [1, 16]: 3.62 h | AUC(0-t) ([1]; human, plasma, oral, 600 mg, Multiple-dose administration, 600 mg, read-out: AUC0-24, Mean): 2800 ng·h/mL | Cmax [1, 17]: 212 ng/mL | Tmax [1, 17]: 4.65 h | AUC(0-t) ([1]; human, plasma, oral, 600 mg, Single-dose administration, 600 mg, read-out: AUC0-t, Mean): 3020 ng·h/mL | Cmax [1, 18]: 225 ng/mL | Tmax [1, 18]: 4.5 h | AUC(0-t) ([1]; human, plasma, oral, 750 mg, Single-dose administration, 750 mg, read-out: AUC0-t, Mean): 3290 ng·h/mL | time of dosing to reach steady-state ([1]; once daily dosing): 8 days | concentration in the blood during the day ([1]; starting from a dose of 200 mg): exceeds 75 nM | inhibition of ZAK [2]: not | inhibition of TIE2 [3]: not
